What was measured:
HT-29 = test: Cytotoxicity against human HT-29 cells after 72 hrs by MTT assay; assay type: functional, cell-based; conditions: HT-29, 72 h
HCT-116 = test: Cytotoxicity against human HCT116 cells after 72 hrs by MTT assay; assay type: functional, cell-based; conditions: HCT-116, 72 h

| SMILES | IC50 (HT-29) | IC50 (HCT-116) |
| --- | --- | --- |
| CC(C)Cc1ccc(C(C)C(=O)OC(C)CC(=O)OC(C)CC(=O)OC(C)CC(=O)OC(C)CC(=O)OC(C)CC(=O)OC(C)CC(=O)O)cc1 (stereo unspecified) | 77 µM | 53 µM |
| CC(C)Cc1ccc(C(C)C(=O)OC(C)CC(=O)OC(C)CC(=O)OC(C)CC(=O)OC(C)CC(=O)O)cc1 (stereo unspecified) | 37 µM | 31 µM |
| CC(C)Cc1ccc(C(C)C(=O)O)cc1 (stereo unspecified) [IBUPROFEN] | 552 µM | 448 µM |
